Measurements from patent publication EP2308883A1, “New derivatives of thieno[2,3-b]pyridine and 5,6,7,8 tetrahydrothieno[2,3 b]quinoline in particular useful in the treatment of malaria” (priority 2009, dated 2011).
Read-outs that look alike come from different tables or passages of the source.

Experiments:
Experiment in all cases: Species specificity: recombinant tagged GSK-3 orthologue kinase assay
GSK-3 [1] = target: T1, GSK-3 (Toxoplasma gondii, UniProt O44002); format: biochemical, Toxaplasma grondii
T1 sequence (O44002 1-394): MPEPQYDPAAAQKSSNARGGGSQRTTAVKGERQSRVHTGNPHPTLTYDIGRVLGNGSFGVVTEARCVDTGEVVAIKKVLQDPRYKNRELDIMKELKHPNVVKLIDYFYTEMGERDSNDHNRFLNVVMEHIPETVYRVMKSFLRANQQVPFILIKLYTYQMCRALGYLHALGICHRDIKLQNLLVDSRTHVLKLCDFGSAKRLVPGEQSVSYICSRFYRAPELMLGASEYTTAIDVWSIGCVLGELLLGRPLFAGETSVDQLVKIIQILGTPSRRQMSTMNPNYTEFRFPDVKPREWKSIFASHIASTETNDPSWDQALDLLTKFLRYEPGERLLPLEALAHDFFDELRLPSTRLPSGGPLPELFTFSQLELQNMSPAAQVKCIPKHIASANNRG

GSK-3 [2] = target: T2, GSK-3 (Trypanosoma cruzi, UniProt Q4E1X0); format: biochemical
T2 sequence (Q4E1X0 1-353): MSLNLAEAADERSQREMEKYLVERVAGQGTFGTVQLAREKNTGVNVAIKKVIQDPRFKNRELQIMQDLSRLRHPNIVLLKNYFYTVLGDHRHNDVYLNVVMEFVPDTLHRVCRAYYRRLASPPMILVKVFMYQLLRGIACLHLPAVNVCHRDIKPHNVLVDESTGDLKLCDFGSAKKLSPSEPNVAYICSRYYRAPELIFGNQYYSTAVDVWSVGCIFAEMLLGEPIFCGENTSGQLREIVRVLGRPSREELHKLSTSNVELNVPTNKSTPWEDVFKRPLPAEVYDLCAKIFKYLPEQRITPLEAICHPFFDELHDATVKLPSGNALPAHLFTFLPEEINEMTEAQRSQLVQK

GSK-3 [3] = target: T3, GSK-3 (Leishmania major, UniProt Q4QE15); format: biochemical, Leishmania majo
T3 construct: made in house
T3 sequence (Q4QE15 entry or part of it): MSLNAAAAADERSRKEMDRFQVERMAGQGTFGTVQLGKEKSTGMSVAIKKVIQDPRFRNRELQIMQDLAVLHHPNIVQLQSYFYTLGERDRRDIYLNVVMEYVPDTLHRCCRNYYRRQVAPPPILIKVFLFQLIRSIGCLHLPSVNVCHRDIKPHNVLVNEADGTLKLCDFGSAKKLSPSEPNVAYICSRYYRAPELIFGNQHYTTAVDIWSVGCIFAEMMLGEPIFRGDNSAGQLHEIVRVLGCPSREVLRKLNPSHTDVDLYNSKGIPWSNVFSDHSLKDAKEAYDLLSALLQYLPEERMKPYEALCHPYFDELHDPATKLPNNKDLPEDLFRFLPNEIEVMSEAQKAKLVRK
Source text: (§1) Given the strong conservation of GSK-3 across evolution and the surprising selectivity of the compounds according to the present invention towards PfGSK-3 versus mammalian GSK-3, a selection of 12 GSK-3 orthologues of various species chosen on the "tree of life" analyzed. The species belong to the Apicomplexa (P. falciparum, P. vivax, P. knowlesi and P. berghei (Gardner, M.J. et al. Genome sequence of the human malaria parasite Plasmodium falciparum. Nature 419, 498-511 (2002); Carlton, J.M. et al. Comparative genomics of the neglected human malaria parasite Plasmodium vivax. Nature 455, 799-803 (2008); Pain, A. et al. The genome of the simian and human malaria parasite Plasmodium knowlesi. Nature 455, 799-803 (2008).). Toxoplasma gondii (Qin, C.L., Tang, J. and Kim, K. Cloning and in vitro expression of TPK3, a Toxoplasma gondii homologue of shaggy/glycogen synthase kinase-3 kinases. Mol. Biochem. Parasitol. 93, 273-283 (1998)), Cryptosporidium parvum.
(§2) Following PCR amplification from cDNA libraries or direct synthesis based on databases sequences, the GSK-3 genes were inserted in appropriate expression vectors and recombinant, tagged kinases were expressed, affinity purified and assayed in the presence of up to 10-100µM of each compound of formula (I) according to the present invention and a selection of the PfGSK-3 inhibitors.

GSK-3 [4] = target: T4, GSK-3 (Leishmania donovani, UniProt A6N857); format: biochemical
T4 sequence (A6N857 1-355): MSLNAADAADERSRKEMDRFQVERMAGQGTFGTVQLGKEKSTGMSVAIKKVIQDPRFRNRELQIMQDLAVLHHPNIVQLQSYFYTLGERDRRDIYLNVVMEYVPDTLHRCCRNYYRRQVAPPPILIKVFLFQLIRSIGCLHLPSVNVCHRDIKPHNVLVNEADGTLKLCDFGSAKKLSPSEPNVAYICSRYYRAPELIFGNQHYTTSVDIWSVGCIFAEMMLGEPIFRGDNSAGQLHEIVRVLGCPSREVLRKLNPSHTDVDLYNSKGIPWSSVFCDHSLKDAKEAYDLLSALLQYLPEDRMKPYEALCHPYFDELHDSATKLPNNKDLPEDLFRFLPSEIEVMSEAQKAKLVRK

GSK-3 [5] = target: T5, GSK-3 (Dictyostelium discoideum, UniProt P51136); format: biochemical
T5 construct: made in house
T5 sequence (P51136 whole entry): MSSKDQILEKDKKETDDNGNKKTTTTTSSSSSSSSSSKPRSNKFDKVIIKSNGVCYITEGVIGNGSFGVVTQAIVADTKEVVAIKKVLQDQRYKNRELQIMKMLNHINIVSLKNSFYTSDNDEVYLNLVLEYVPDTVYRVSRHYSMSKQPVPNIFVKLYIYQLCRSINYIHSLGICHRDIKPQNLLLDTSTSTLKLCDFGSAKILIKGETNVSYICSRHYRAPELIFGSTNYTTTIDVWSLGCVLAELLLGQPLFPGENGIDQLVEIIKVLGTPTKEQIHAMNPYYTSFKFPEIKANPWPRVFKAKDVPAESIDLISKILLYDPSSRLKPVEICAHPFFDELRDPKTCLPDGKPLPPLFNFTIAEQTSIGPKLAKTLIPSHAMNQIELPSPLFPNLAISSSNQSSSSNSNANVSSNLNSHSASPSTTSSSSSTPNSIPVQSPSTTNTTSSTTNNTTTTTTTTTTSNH
Source text: as §1, §2

GSK-3 [6] = target: T6, GSK-3 (Plasmodium falciparum, UniProt O77344); format: biochemical
T6 construct: made in house
T6 sequence (O77344 entry or part of it): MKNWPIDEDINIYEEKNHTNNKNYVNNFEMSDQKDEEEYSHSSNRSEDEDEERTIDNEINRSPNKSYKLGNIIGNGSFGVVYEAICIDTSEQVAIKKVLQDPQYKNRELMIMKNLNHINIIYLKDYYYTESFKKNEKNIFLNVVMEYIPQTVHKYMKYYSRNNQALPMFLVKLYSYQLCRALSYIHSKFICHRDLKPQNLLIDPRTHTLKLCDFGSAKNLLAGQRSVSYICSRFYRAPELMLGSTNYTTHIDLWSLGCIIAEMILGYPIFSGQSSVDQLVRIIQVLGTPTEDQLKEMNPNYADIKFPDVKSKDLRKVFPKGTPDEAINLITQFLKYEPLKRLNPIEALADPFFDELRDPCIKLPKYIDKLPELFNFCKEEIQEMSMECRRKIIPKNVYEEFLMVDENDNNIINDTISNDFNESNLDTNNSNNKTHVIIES
Source text: as §1, §2

GSK-3 α = target: T7, GSK-3 α (Homo sapiens, UniProt P49840); format: biochemical; conditions: calculated from dose-response curves; -(100) taken as no inhibition at 100
T7 construct: made in house
T7 sequence (P49840 whole entry): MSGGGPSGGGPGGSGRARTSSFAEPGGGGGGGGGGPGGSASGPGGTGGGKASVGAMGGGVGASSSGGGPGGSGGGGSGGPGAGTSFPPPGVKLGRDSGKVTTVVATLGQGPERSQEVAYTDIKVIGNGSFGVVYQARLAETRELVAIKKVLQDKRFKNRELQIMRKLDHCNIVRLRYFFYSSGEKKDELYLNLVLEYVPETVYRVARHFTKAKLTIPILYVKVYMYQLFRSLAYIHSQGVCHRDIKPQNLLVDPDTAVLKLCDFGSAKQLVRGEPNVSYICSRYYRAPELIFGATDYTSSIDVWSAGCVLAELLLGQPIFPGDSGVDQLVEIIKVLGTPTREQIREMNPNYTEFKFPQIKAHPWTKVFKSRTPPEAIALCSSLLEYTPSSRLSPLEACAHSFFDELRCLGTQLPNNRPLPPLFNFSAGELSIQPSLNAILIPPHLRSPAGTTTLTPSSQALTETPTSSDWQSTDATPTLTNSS
Source text: as §1, §2

GSK-3 α/β = format: biochemical; conditions: calculated from dose-response curves; -(100) taken as no inhibition at 100; read-out: IC50 Sus scrofa (GSK-3 α/β)
Source text: as §1, §2

GSK- 3 β = target: T8, GSK- 3 β (Homo sapiens, UniProt P49841); format: biochemical; conditions: calculated from dose-response curves; -(100) taken as no inhibition at 100
T8 construct: made in house
T8 sequence (P49841 whole entry): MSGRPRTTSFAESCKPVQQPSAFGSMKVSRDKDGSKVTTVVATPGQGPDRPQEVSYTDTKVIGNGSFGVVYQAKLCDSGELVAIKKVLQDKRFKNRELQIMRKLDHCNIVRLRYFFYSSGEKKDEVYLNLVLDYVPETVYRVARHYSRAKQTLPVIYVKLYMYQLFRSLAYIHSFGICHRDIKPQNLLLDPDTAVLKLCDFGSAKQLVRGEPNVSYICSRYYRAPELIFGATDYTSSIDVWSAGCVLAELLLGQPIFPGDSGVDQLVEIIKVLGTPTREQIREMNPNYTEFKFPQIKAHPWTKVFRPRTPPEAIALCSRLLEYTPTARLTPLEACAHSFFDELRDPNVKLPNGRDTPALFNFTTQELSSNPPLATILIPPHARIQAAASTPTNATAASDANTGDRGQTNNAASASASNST
Source text: as §1, §2

[7] = read-out: IC50 Trypanopsoma cruzi; calculated from dose-response curves; -(100) taken as no inhibition at 100
[8] = read-out: IC50 Leishmania donovani; calculated from dose-response curves
[9] = calculated from dose-response curves, -(100) taken as no inhibition at 100, read-out: IC50 Toxaplasma grondii
[10] = calculated from dose-response curves; -(100) taken as no inhibition at 100; read-out: IC50 Trypanopsoma cruzi
[11] = calculated from dose-response curves; read-out: IC50 Leishmania donovani

Row | Compound | IC50 (GSK-3 [1]) | IC50 (GSK-3 [2]; [7]) | IC50 (GSK-3 [3]) | IC50 (GSK-3 [4]; [8]) | IC50 (GSK-3 [5]) | IC50 (GSK-3 [6]) | IC50 (GSK-3 α) | IC50 (GSK-3 α/β) | IC50 (GSK-3 [1]; [9]) | IC50 (GSK-3 [2]; [10]) | IC50 (GSK-3 [4]; [11]) | IC50 (GSK- 3 β) | IC50 (GSK-3 [6]; read-out: IC50 Plasmodium falciparum, calculated from dose-response curves)
1 | COc1ccccc1-c1c(C#N)c(N)nc2sc(C(=O)c3ccccc3)c(N)c12 [Compound 2, 3,6-diamino-2-benzoyl-4-(2-methoxyphenyl)thieno[2,3-b]pyridine-5-carbonitrile] | > 100 µM | > 100 µM | > 100 µM | 80 µM | > 100 µM | 7.8 µM | > 100 µM | > 100 µM | – | – | – | – | –
2 | N#Cc1c(N)nc2sc(C(=O)c3cccc(Cl)c3)c(N)c2c1-c1ccccc1I [Compound 14, 3,6-diamino-2-(3-chlorobenzoyl)-4-(2-iodophenyl)thieno[2,3-b]pyridine-5-carbonitrile] | – | – | > 100 µM | – | > 100 µM | – | > 100 µM | > 100 µM | > 100 µM | > 100 µM | 70 µM | 50 µM | 101 µM
3 | N#Cc1cccc(C(=O)c2sc3nc(N)c(C#N)c(-c4ccccc4Cl)c3c2N)c1 [Compound 26, 3,6-diamino-4-(2-chlorophenyl)-2-(3-cyanobenzoyl)thieno[2,3-b]pyridine-5-carbonitrile] | – | – | > 100 µM | – | > 100 µM | 0.21 µM | > 25 µM | 22 µM | > 100 µM | > 100 µM | 100 µM | 8.1 µM | –
4 | N#Cc1c(N)nc2sc(C(=O)c3cccc(Cl)c3)c(N)c2c1-c1ccccc1Br [Compound 20, 3,6-diamino-4-(2-bromophenyl)-2-(3-chlorobenzoyl)thieno[2,3-b]pyridine-5-carbonitrile] | – | – | > 100 µM | – | 80 µM | 0.47 µM | > 100 µM | 5.6 µM | > 100 µM | > 100 µM | 44 µM | 4 µM | –
5 | N#Cc1c(N)nc2sc(C(=O)c3cccc(Cl)c3)c(N)c2c1-c1ccccc1Cl [Compound 22, 3,6-diamino-2-(3-chlorobenzoyl)-4-(2-chlorophenyl)thieno[2,3-b]pyridine-5-carbonitrile] | > 100 µM | > 100 µM | > 100 µM | 72 µM | > 10 µM | 0.41 µM | > 100 µM | > 10 µM | – | – | – | 3.3 µM | –
